Assay results as given in ChEMBL document CHEMBL1201862, “PubChem BioAssay data set” (2004).
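Cells were grown in 96-well plates and exposed to each compound for 48 hours at five concentrations; endpoints were interpolated linearly between bracketing concentrations, or set to the highest concentration if not reached. At the GI50, growth is halved.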 Calls of active or inactive are those of the source. Rule as the data show it: active = GI50 up to about 1.1 µM and inactive = higher.

Tests used:
Assay in all cases: NCI-60 cell line screen, 48 h
SN12C = test system: SN12C
SK-MEL-5 = test system: SK-MEL-5
M14 = test system: M14
ACHN = test system: ACHN
NCI-H460 = test system: NCI-H460
UACC-257 = test system: UACC-257
TK-10 = test system: TK-10
CCRF-CEM = test system: CCRF-CEM
LOX IMVI = test system: LOX IMVI
SNB-19 = test system: SNB-19
OVCAR-4 = test system: OVCAR-4
MOLT-4 = test system: MOLT-4
NCI-H23 = test system: NCI-H23
U-251 = test system: U-251
LXFL 529 = test system: LXFL 529
HOP-62 = test system: HOP-62
SNB-75 = test system: SNB-75
KM-20L2 = test system: KM-20L2
RPMI-8226 = test system: RPMI-8226
SNB-78 = test system: SNB-78
DMS-114 = test system: DMS-114
Malme-3M = test system: Malme-3M
SK-MEL-28 = test system: SK-MEL-28
HL-60 = test system: HL-60
SF-295 = test system: SF-295
SW-620 = test system: SW-620
786-0 = test system: 786-0
SF-539 = test system: SF-539
NCI-H226 = test system: NCI-H226
IGROV-1 = test system: IGROV-1
K562 = test system: K562
KM12 = test system: KM12
SK-OV-3 = test system: SK-OV-3
NCI-H522 = test system: NCI-H522
CAKI-1 = test system: CAKI-1
RXF 631 = test system: RXF 631
M19-MEL = test system: M19-MEL
UO-31 = test system: UO-31
OVCAR-5 = test system: OVCAR-5
SK-MEL-2 = test system: SK-MEL-2
A549 = test system: A549
HCC 2998 = test system: HCC 2998
SF-268 = test system: SF-268
A498 = test system: A498
OVCAR-3 = test system: OVCAR-3
OVCAR-8 = test system: OVCAR-8
DLD-1 = test system: DLD-1
HT-29 = test system: HT-29
RXF 393 = test system: RXF 393
EKVX = test system: EKVX
HOP-92 = test system: HOP-92
COLO 205 = test system: COLO 205
DMS-273 = test system: DMS-273
UACC-62 = test system: UACC-62
XF498 = test system: XF498
HCT-15 = test system: HCT-15
SR = test system: SR
HCT-116 = test system: HCT-116

CCc1ccccc1NC(=O)C1=C(C)NC(C)=C(C(=O)Nc2ccccc2CC)C1c1cccc([N+](=O)[O-])c1
GI50 (SN12C): 70.6 µM (inactive)
GI50 (SK-MEL-5): 27.7 µM (inactive)
GI50 (M14): 29 µM (inactive)
GI50 (ACHN): 29.5 µM (inactive)
GI50 (NCI-H460): 27.7 µM (inactive)
GI50 (UACC-257): 33.2 µM (inactive)
GI50 (TK-10): 41.6 µM (inactive)
GI50 (CCRF-CEM): 12.1 µM (inactive)
GI50 (LOX IMVI): 87.9 µM (inactive)
GI50 (SNB-19): 59.4 µM (inactive)
GI50 (OVCAR-4): 7.85 µM (inactive)
GI50 (MOLT-4): 7.45 µM (inactive)
GI50 (NCI-H23): 36.6 µM (inactive)
GI50 (U-251): 39.4 µM (inactive)
GI50 (LXFL 529): 26.2 µM (inactive)
GI50 (HOP-62): 38.3 µM (inactive)
GI50 (SNB-75): 32.1 µM (inactive)
GI50 (KM-20L2): 31 µM (inactive)
GI50 (RPMI-8226): 11.7 µM (inactive)
GI50 (SNB-78): 43.5 µM (inactive)
GI50 (DMS-114): 30.1 µM (inactive)
GI50 (Malme-3M): 35.9 µM (inactive)
GI50 (SK-MEL-28): 40.9 µM (inactive)
GI50 (HL-60): 23.2 µM (inactive)
GI50 (SF-295): 47.4 µM (inactive)
GI50 (SW-620): 47.5 µM (inactive)
GI50 (786-0): 43 µM (inactive)
GI50 (SF-539): 43.9 µM (inactive)
GI50 (NCI-H226): 29.8 µM (inactive)
GI50 (IGROV-1): 21.8 µM (inactive)
GI50 (K562): 29.4 µM (inactive)
GI50 (KM12): 32.8 µM (inactive)
GI50 (SK-OV-3): > 100 µM (inactive)
GI50 (NCI-H522): 22.2 µM (inactive)
GI50 (CAKI-1): 43.8 µM (inactive)
GI50 (RXF 631): 46.3 µM (inactive)
GI50 (M19-MEL): 44.7 µM (inactive)
GI50 (UO-31): 11.5 µM (inactive)
GI50 (OVCAR-5): 41.5 µM (inactive)
GI50 (SK-MEL-2): 19.5 µM (inactive)
GI50 (A549): 21.5 µM (inactive)
GI50 (HCC 2998): 11.7 µM (inactive)
GI50 (SF-268): 43 µM (inactive)
GI50 (A498): 24.2 µM (inactive)
GI50 (OVCAR-3): 52 µM (inactive)
GI50 (OVCAR-8): 44.7 µM (inactive)
GI50 (DLD-1): 19.9 µM (inactive)
GI50 (HT-29): 37.1 µM (inactive)
GI50 (RXF 393): 10.5 µM (inactive)
GI50 (EKVX): 34 µM (inactive)
GI50 (HOP-92): 13.2 µM (inactive)
GI50 (COLO 205): 34.7 µM (inactive)

C1=CC(=P(c2ccccc2)(c2ccccc2)c2ccccc2)C=C1
GI50 (SN12C): 10.3 µM (inactive)
GI50 (SK-MEL-5): 12.2 µM (inactive)
GI50 (DMS-273): 9.91 µM (inactive)
GI50 (M14): 8.22 µM (inactive)
GI50 (ACHN): 14.2 µM (inactive)
GI50 (NCI-H460): 7.83 µM (inactive)
GI50 (UACC-62): 6.25 µM (inactive)
GI50 (XF498): 2.91 µM (inactive)
GI50 (UACC-257): 7.48 µM (inactive)
GI50 (TK-10): 20.7 µM (inactive)
GI50 (CCRF-CEM): 3.42 µM (inactive)
GI50 (LOX IMVI): 6.5 µM (inactive)
GI50 (SNB-19): 4.67 µM (inactive)
GI50 (OVCAR-4): 13.9 µM (inactive)
GI50 (MOLT-4): 5.4 µM (inactive)
GI50 (NCI-H23): 11.5 µM (inactive)
GI50 (LXFL 529): 3.63 µM (inactive)
GI50 (HOP-62): 18.4 µM (inactive)
GI50 (SNB-75): 3.37 µM (inactive)
GI50 (KM-20L2): 11.3 µM (inactive)
GI50 (RPMI-8226): 3.18 µM (inactive)
GI50 (SNB-78): 7.5 µM (inactive)
GI50 (DMS-114): 4.65 µM (inactive)
GI50 (Malme-3M): 4.75 µM (inactive)
GI50 (SK-MEL-28): 4.45 µM (inactive)
GI50 (HL-60): 2.77 µM (inactive)
GI50 (SF-295): 15.1 µM (inactive)
GI50 (SW-620): 16.1 µM (inactive)
GI50 (786-0): 10.4 µM (inactive)
GI50 (SF-539): 14.8 µM (inactive)
GI50 (IGROV-1): 11.5 µM (inactive)
GI50 (K562): 3.45 µM (inactive)
GI50 (KM12): 9.31 µM (inactive)
GI50 (SK-OV-3): 18.2 µM (inactive)
GI50 (NCI-H522): 3.13 µM (inactive)
GI50 (CAKI-1): 17.9 µM (inactive)
GI50 (RXF 631): 19.4 µM (inactive)
GI50 (M19-MEL): 4.04 µM (inactive)
GI50 (UO-31): 15.9 µM (inactive)
GI50 (OVCAR-5): 14.7 µM (inactive)
GI50 (SK-MEL-2): 13.3 µM (inactive)
GI50 (A549): 14.1 µM (inactive)
GI50 (HCC 2998): 10.6 µM (inactive)
GI50 (SF-268): 10.3 µM (inactive)
GI50 (OVCAR-3): 10.7 µM (inactive)
GI50 (OVCAR-8): 4.95 µM (inactive)
GI50 (DLD-1): 12.5 µM (inactive)
GI50 (HT-29): 10.6 µM (inactive)
GI50 (RXF 393): 13.7 µM (inactive)
GI50 (EKVX): 24.2 µM (inactive)
GI50 (HOP-92): 6.14 µM (inactive)
GI50 (COLO 205): 4.13 µM (inactive)
GI50 (HCT-15): 29.7 µM

Cc1cc(NS(=O)(=O)c2ccc(NC(=O)c3cccc4c(Nc5ccc(S(N)(=O)=O)cc5)c5ccccc5nc34)cc2)no1
GI50 (SN12C): > 100 µM (inactive)
GI50 (M14): > 100 µM (inactive)
GI50 (ACHN): > 100 µM (inactive)
GI50 (NCI-H460): > 100 µM (inactive)
GI50 (UACC-62): > 100 µM (inactive)
GI50 (XF498): 59.7 µM (inactive)
GI50 (UACC-257): > 100 µM (inactive)
GI50 (TK-10): > 100 µM (inactive)
GI50 (CCRF-CEM): 85.9 µM (inactive)
GI50 (LOX IMVI): 70.3 µM (inactive)
GI50 (SR): 80.9 µM (inactive)
GI50 (SNB-19): 97.3 µM (inactive)
GI50 (OVCAR-4): > 100 µM (inactive)
GI50 (MOLT-4): > 100 µM (inactive)
GI50 (NCI-H23): > 100 µM (inactive)
GI50 (U-251): 87.7 µM (inactive)
GI50 (LXFL 529): > 100 µM (inactive)
GI50 (HOP-62): > 100 µM (inactive)
GI50 (SNB-75): 60 µM (inactive)
GI50 (RPMI-8226): 87.9 µM (inactive)
GI50 (SNB-78): > 100 µM (inactive)
GI50 (DMS-114): > 100 µM (inactive)
GI50 (Malme-3M): > 100 µM (inactive)
GI50 (SK-MEL-28): > 100 µM (inactive)
GI50 (HL-60): > 100 µM (inactive)
GI50 (SF-539): 73.6 µM (inactive)
GI50 (K562): 98.2 µM (inactive)
GI50 (KM12): 57 µM (inactive)
GI50 (SK-OV-3): > 100 µM (inactive)
GI50 (NCI-H522): 41.6 µM (inactive)
GI50 (RXF 631): > 100 µM (inactive)
GI50 (M19-MEL): > 100 µM (inactive)
GI50 (UO-31): 35.6 µM (inactive)
GI50 (OVCAR-5): > 100 µM (inactive)
GI50 (SK-MEL-2): > 100 µM (inactive)
GI50 (HCC 2998): > 100 µM (inactive)
GI50 (SF-268): > 100 µM (inactive)
GI50 (A498): > 100 µM (inactive)
GI50 (OVCAR-3): 76.2 µM (inactive)
GI50 (DLD-1): > 100 µM (inactive)
GI50 (HT-29): > 100 µM (inactive)
GI50 (RXF 393): > 100 µM (inactive)
GI50 (EKVX): 96.8 µM (inactive)
GI50 (HCT-116): > 100 µM (inactive)
GI50 (HCT-15): > 100 µM
